# Reference: US10682427B2, “Intra-operative imaging” (BRACCO IMAGING S.P.A., priority 2014, dated 2020)
# Experiments:
# [1] = system: rat orthotopic prostate tumor model Mat Ly-Lu; experiment: Fluorescence guided-surgery in rat prostate tumor model, visual classification validated by histology; assay type: in vivo, Copenhagen rats
# Method: This example is aimed at assessing the sensitivity of the NIR RGD cyclic probe DA364 in the recognition of tumor masses using rat orthotopic prostate tumor model Mat Ly-Lu (a tumor with reduced expression of αvβ3 integrins, as illustrated below).
# Intraoperative imaging was performed on a Zeiss system, a modified surgical microscope including appropriate filters for illumination and selection of signals emitted from the probe. Rat tumoral MatLyLu prostate cells were inoculated in the right ventral lobe of the prostate. Three-four days after inoculation animals were intravenously injected with a dose ranging from 5 to 20 nmol/rat of NIR fluorescent probe and imaged 24 hours after. Tumors have been then resected through fluorescent signal guide. Tissues surrounding the fluorescent area including tissues from the left prostate lobe was excised for histological comparison. All the samples were analysed through routine histological processing (Hematoxylin and eosin stain) and additional immune-labelling.
# The experiment was performed on 10 Copenhagen rats (males) 11 weeks old, purchased from Harlan Laboratories Srl, S.Pietro al Natisone (UD), Italy. Rat prostate adenocarcinoma was induced in Copenhagen rats by orthotopic injection of the MatLylu tumor cells under isofluorane anesthesia. About 1 hour before tumor implantation, an analgesic (Rymadil) was administered subcutaneously (5 mg/kg) to rats. Then the lower abdomen was shaved and disinfected (Betadinen. A 12 mm incision of the abdominal wall along the linea Alba was performed 3 to 4 cm above the urinary orifice. The prostate was exposed after having pushed away the adipose tissue on each side of the animal.
# A cell suspension (30 μL) containing 0.5×10^6 tumor cells was injected with a 27G needle into the right ventral lobe of the prostate. The muscular and cutaneous plan was sewed up with sterile non-resorbable thread (3-0 black silk, Distrex S.p.a.). The wound was painted with disinfectant solution Betadine®. The analgesic was also administered at least once after surgery (about 24 h after). All procedures involving the animals have been conducted according to national and international laws and policies for the Care and Use of Laboratory Animals (EEC Council Directive 86/609CEE; L.D. 116/92 and EEC Council Directive 2010/63/EU; L.D. 26/2014. Authorization n.149/2006-A issued Oct. 27, 2006 by the Italian Ministry of Health).
# The tumor removal was performed using a dedicated surgical microscope (Axio Zoom v16, Carl Zeiss Beteiligungs GmbH, Jena, Germany). The microscope was equipped with a PLANAPO Z 0.5×/0.125 FWD 114 MM objective. During surgery an area of about 2.5×2.5 cm^2 was visualized. The surgical field was white-light illuminated by a cold light source (CL 9000 LED CAN (D)) when the fluorescence signal was not required, and by filtered light during the tumor removal (Illuminator: HXP 200C (D), filter set: 32 Cy 5.5 shift free (E)).
# The day before surgery, corresponding to 3-4 days after tumor implantation, animals were administered with a dose of DA364 test agent ranging from 5 to 20 nmol/rat. Twenty-four hours after probes injection, animals were anaesthetized with isofluorane gas 0.5% (O2 99.5%), secured on the surgical table in the supine position and prostate tumor will be exposed.
# After the removal of the prostatic capsule, the prostatic tumor was exposed to filtered light and fluorescence images were acquired to outline the primary tumor mass and the margins of the pathology (see FIG. 3, Panels A and D). The removal of the tumor mass was then carried out iteratively, by using fluorescence to guide the excision until absence of the fluorescent signal in the area surrounding tumor region (see FIG. 3, Panels B,E and C,F). Most of the fluorescent signal was confined in implantation area, i.e. the prostate right ventral lobe. […]
# [2] = system: A431 tumor; experiment: In vivo and ex vivo fluorescence imaging of tumor uptake (IVIS Spectrum); set-up: species or system mice
# Method: (§1) A431 cells were collected and washed two times with PBS. Five million cells were resuspended in 0.1 mL of DMEM high glucose medium and subcutaneously injected in the right flank of all mice. Eleven days after A431 inoculation, U-87MG cells were collected and washed two times with PBS. Two million cells were resuspended in 0.1 mL of EMEM medium and subcutaneously injected in the left flank of same animals previously injected with A431 cells.
# (§2) Three weeks after A431 tumor implantation five mice were administered with 1 nmol of DA364 for a total administration volume of 0.2 mL (inj. rate 1 mL/min). In vivo OI acquisitions have been carried out 5 min, 15 min, 30 min, 1 h, 2 h, 3 h, 4 h, 6 h, 24 h and 48 hours after intravenous administration of the fluorescent probe using the IVIS Spectrum optical imaging system (Perkin Elmer). During OI experiments animals were kept under 3-4% Sevofluorane gas anaesthesia (O2 97.0-96.0%). During anaesthesia animals body temperature has been stabilized at about 37° C. using a heated bed.
# (§3) Following in vivo OI experiments, 48 hours after probes injection, animals were sacrificed. Tumors, liver, kidneys, heart and spleen were excised for ex vivo fluorescent signal measure on the whole excised tumor or organ.
# (§4) Fluorescence intensity from U-87 MG and A431 tumors was measured in vivo together with the signal coming from the normal healthy tissues (background).
# (§5) The fluorescent signal (expressed as Radiant Efficiency (RE): p/s/(μW/cm^2), where p is the photon count), was then measured on the excised ex vivo samples using the IVIS Spectrum optical imaging system (Perkin Elmer).
# [3] = system: U-87MG tumor; experiment: as above; set-up: species or system mice
# Method: as §1, §2, §3, §4, §5
# [4] = Ex vivo fluorescent signal in excised organs (IVIS Spectrum); set-up: species or system mice; settings: 48 hours after 1 nmol i.v.
# Method: as §2, §3, §5
# [5] = 5 to 20 nmol/rat i.v., surgery 24 h after, versus histology
# [6] = ex vivo, 48 hours after 1 nmol i.v.
compound,measurement,setting,value
CC[N+]1=C(/C=C/C=C/C=C2/N(CCCCCC(=O)NC[C@@H]3C[C@@H]4CC[C@H]5C(=O)N[C@@H](CCCNC(=N)N)C(=O)NCC(=O)N[C@@H](CC(=O)O)C(=O)N[C@H]3C(=O)N45)c3ccc4c(S(=O)(=O)O)cc(S(=O)(=O)O)cc4c3C2(C)C)C(C)(C)c2c1ccc1c(S(=O)(=O)[O-])cc(S(=O)(=O)O)cc21 [DA364],sensitivity of visual classification of tumor tissues,[1]; [5],87%
same,specificity of visual classification of tumor tissues,[1]; [5],83%
same,"number of tissue samples, histology Negative",[1]; surgery class FLUORESCENT,3
same,"number of tissue samples, histology Positive",[1]; surgery class FLUORESCENT,20
same,"number of tissue samples, histology Negative",[1]; surgery class NON FLUORESCENT,15
same,"number of tissue samples, histology Positive",[1]; surgery class NON FLUORESCENT,3
same,tumor signal ratio with respect to the background,"[2]; A431 tumor in vivo, 3 hours to 24 hours after injection",stable signal ratio
same,fluorescence intensity in A431 tumors relative to heart and spleen (background),[2]; [6],about 10 times
same,fluorescence intensity in A431 tumors relative to liver and kidney,[2]; [6],comparable
same,Fluorescence Signal (Radiant Efficiency),"[2]; excised A431 tumor ex vivo, 48 hours after 1 nmol i.v.",3.47E+08 p/s/(μW/cm^2)
same,visualization of tumor under skin (FIG. 9),"[2]; low-integrin expressing tumor A431, in vivo fluorescence imaging",clear visualization
same,tumor signal ratio with respect to the background,"[3]; U-87 MG tumor in vivo, 3 hours to 24 hours after injection",stable signal ratio
same,fluorescence signal in U-87MG tumor relative to A431 tumor,[3]; [6],about twice
same,Fluorescence Signal (Radiant Efficiency),"[3]; excised U87-MG tumor ex vivo, 48 hours after 1 nmol i.v.",6.78E+08 p/s/(μW/cm^2)
same,Fluorescence Signal (Radiant Efficiency),[4]; excised heart ex vivo,4.61E+07 p/s/(μW/cm^2)
same,Fluorescence Signal (Radiant Efficiency),[4]; excised kidney ex vivo,3.55E+08 p/s/(μW/cm^2)
same,Fluorescence Signal (Radiant Efficiency),[4]; excised liver ex vivo,4.04E+08 p/s/(μW/cm^2)
same,Fluorescence Signal (Radiant Efficiency),[4]; excised spleen ex vivo,5.79E+07 p/s/(μW/cm^2)
